One may read the IC50 as the point on the concentration scale where inhibition reaches its midpoint. Read a low IC50 as inhibition by little substance.

The text below walks through data of ChEMBL document CHEMBL1132253, “Potent inhibition of influenza sialidase by a benzoic acid containing a 2-pyrrolidinone substituent” (J Med Chem, 1999).

The target in this experiment is Neuraminidase (Influenza B virus (strain B/Lee/1940), UniProt P03474). In words: In vitro inhibitory activity against B/Lee/40 Influenza B Neuraminidase.

Where only a bound is given, the exact number is not on record here.

Turning to `CCC(CC)Nc1cc(C(=O)O)ccc1N1C(=O)CCC1(CO)CO`, the IC50 was 104 µM.

For `N=C(N)Nc1cc(C(=O)O)ccc1N1C(=O)CCC1(CO)CO`, the IC50 was 8 µM.

`CC(=O)Nc1c(N=C(N)N)cc(C(=O)O)cc1N=C(N)N` displayed an IC50 of 250 µM.

Compound `CCC(CC)Nc1cc(C(=O)O)ccc1N1CCCC1=O` came in with an IC50 greater than 5000 µM.

As for `O=C(O)c1ccc(N2C(=O)CCC2(CO)CO)cc1`, the IC50 is greater than 8000 µM.

`NCC1CCC(=O)N1c1ccc(C(=O)O)cc1N=C(N)N` (stereo unspecified) came in with an IC50 of 500 µM.
